Source: publication PMC12300041, “Tricyclic Isatin Derivatives as Anti-Inflammatory Compounds with High Kinase Binding Affinity” (Molecules, 2025)

Tests used:
Assay in all cases: KINOMEscan
Type in all cases: binding
NEK5 = molecular target: T1, NEK5 (Homo sapiens, UniProt Q6P3R8)
T1 construct: purchased Eurofins DiscoverX KINOMEscan
Method in brief: (§1)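 1 h RT binding → immobilized-ligand capture of free kinase → qPCR quantitation. Kd: 12 half-log points, max 33 μM.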

CAMK1G = molecular target: T2, CAMK1G (Homo sapiens, UniProt Q96NX5)
T2 construct: purchased Eurofins DiscoverX KINOMEscan
Method in brief: as §1

EPHA8 = molecular target: T3, EPHA8 (Homo sapiens, UniProt P29322)
T3 construct: purchased Eurofins DiscoverX KINOMEscan
Method in brief: as §1

MET (M1250T) = molecular target: T4, MET (M1250T) (Homo sapiens, UniProt P08581, M1250T)
T4 construct: purchased Eurofins DiscoverX KINOMEscan
T4 sequence (P08581 25-1390 M1250T): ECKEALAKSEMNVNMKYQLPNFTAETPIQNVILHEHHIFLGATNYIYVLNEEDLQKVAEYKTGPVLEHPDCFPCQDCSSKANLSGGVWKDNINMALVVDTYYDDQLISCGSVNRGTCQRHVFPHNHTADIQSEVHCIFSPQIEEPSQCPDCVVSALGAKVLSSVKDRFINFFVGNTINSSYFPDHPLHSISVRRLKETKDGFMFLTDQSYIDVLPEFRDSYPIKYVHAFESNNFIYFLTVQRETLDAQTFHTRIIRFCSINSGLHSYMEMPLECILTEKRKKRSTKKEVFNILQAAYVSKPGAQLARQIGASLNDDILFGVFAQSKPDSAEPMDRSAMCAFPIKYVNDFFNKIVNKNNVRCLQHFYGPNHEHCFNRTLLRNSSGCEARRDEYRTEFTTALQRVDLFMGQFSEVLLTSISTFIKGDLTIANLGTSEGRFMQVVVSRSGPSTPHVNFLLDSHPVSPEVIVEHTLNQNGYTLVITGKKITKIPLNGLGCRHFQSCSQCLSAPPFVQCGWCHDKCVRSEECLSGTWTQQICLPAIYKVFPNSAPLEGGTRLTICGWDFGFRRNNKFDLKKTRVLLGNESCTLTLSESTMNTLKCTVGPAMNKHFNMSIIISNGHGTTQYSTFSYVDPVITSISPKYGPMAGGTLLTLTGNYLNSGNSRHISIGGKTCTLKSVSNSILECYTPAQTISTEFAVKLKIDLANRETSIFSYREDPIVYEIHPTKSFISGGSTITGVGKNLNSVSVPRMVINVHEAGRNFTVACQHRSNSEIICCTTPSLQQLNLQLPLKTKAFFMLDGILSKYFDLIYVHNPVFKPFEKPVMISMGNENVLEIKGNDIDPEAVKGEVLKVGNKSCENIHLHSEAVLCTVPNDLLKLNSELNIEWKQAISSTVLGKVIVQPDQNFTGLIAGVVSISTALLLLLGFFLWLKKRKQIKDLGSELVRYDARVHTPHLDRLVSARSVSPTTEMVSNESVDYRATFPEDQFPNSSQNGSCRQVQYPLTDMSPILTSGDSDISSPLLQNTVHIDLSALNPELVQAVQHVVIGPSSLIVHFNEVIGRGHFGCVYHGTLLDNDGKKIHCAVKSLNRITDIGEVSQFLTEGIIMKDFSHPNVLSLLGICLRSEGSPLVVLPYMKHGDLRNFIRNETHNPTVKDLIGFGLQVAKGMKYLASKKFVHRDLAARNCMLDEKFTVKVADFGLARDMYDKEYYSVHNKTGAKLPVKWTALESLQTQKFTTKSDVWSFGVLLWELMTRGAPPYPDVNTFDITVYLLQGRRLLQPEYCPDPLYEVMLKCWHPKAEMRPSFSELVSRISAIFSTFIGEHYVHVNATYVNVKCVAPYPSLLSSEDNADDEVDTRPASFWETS
Method in brief: as §1

TAK1 = molecular target: T5, TAK1 (Homo sapiens, UniProt O43318)
T5 construct: purchased Eurofins DiscoverX KINOMEscan
Method in brief: (§2)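 Measured as Kd. Free kinase after 1 h at room temperature was captured on immobilized ligand and detected by qPCR; compound titrated in 12 half-log steps from 33 μM.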

MRCKA = molecular target: T6, MRCKA (Homo sapiens, UniProt Q5VT25)
T6 construct: purchased Eurofins DiscoverX KINOMEscan
Method in brief: as §1

GSK3B = molecular target: T7, GSK3B (Homo sapiens, UniProt P49841)
T7 construct: purchased Eurofins DiscoverX KINOMEscan
T7 sequence (P49841 whole entry): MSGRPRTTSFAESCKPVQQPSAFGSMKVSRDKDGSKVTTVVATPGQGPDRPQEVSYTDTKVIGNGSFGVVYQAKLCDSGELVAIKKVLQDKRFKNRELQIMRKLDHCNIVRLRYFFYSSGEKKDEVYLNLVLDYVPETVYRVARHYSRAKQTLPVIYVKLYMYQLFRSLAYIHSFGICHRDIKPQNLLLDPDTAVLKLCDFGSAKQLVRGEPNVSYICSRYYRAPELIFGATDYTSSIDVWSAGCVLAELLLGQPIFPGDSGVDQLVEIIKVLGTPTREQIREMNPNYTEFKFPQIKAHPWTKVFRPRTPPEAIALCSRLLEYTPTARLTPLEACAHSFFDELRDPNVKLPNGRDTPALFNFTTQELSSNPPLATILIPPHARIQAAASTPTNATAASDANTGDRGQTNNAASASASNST
Method in brief: as §2

GRK7 = molecular target: T8, GRK7 (Homo sapiens, UniProt Q8WTQ7)
T8 construct: purchased Eurofins DiscoverX KINOMEscan
Method in brief: as §1

ABL1 (F317I)-P = molecular target: T9, ABL1 (F317I)-P (Homo sapiens, UniProt P00519, F317I)
T9 construct: purchased Eurofins DiscoverX KINOMEscan
T9 sequence (P00519 whole entry F317I): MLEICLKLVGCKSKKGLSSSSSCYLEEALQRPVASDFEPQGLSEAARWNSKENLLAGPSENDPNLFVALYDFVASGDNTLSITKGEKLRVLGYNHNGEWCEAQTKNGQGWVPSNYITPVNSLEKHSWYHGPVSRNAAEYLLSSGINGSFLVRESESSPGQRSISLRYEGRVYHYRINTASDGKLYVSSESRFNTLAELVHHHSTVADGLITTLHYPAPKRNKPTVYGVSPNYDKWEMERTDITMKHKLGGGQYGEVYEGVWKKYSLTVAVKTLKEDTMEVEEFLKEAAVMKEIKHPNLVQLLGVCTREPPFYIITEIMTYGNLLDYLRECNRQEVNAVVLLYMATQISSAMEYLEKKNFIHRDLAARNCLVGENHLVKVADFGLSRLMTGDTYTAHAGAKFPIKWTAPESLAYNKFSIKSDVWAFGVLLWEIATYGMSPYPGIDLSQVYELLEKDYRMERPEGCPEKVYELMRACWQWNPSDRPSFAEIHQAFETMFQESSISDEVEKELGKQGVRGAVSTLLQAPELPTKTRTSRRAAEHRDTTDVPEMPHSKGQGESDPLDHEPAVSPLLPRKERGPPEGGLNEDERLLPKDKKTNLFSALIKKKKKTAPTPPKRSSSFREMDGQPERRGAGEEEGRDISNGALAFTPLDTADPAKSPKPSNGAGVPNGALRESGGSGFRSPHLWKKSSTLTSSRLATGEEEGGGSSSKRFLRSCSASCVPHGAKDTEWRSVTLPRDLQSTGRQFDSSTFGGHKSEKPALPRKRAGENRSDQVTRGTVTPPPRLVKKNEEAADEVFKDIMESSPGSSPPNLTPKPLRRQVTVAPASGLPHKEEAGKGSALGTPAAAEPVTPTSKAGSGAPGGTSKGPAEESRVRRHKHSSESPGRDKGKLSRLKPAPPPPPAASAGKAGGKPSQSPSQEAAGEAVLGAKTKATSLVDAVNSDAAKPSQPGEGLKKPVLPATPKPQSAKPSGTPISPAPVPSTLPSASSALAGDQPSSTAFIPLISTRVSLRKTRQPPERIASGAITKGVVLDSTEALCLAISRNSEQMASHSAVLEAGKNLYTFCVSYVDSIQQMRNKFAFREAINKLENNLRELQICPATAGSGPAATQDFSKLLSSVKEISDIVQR
Method in brief: as §1

PIK4CB = molecular target: T10, PIK4CB (Homo sapiens, UniProt Q9UBF8)
T10 construct: purchased Eurofins DiscoverX KINOMEscan
Method in brief: as §2

ACVR1 = molecular target: T11, ACVR1 (Homo sapiens, UniProt Q04771)
T11 construct: purchased Eurofins DiscoverX KINOMEscan
T11 sequence (Q04771 21-509): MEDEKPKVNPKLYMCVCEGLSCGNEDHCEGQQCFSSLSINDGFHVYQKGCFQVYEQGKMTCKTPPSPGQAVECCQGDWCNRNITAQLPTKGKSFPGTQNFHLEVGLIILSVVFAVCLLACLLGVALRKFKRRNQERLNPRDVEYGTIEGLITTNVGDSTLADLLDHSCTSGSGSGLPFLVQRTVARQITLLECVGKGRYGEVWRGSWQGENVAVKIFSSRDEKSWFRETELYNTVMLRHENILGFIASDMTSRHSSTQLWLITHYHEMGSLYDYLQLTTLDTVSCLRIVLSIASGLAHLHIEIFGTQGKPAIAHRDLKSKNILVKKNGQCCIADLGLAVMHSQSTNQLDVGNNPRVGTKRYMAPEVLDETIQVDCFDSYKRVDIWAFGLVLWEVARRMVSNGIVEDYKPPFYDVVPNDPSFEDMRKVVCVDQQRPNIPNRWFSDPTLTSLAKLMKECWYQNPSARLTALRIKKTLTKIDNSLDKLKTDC
Method in brief: as §1

MET (Y1235D) = molecular target: T12, MET (Y1235D) (Homo sapiens, UniProt P08581, Y1235D)
T12 construct: purchased Eurofins DiscoverX KINOMEscan
Method in brief: as §1

WNK4 = molecular target: T13, WNK4 (Homo sapiens, UniProt Q96J92)
T13 construct: purchased Eurofins DiscoverX KINOMEscan
Method in brief: as §1

PIK3C2G = molecular target: T14, PIK3C2G (Homo sapiens, UniProt O75747)
T14 construct: purchased Eurofins DiscoverX KINOMEscan
Method in brief: as §1

TRKA = molecular target: T15, TRKA (Homo sapiens, UniProt P04629)
T15 construct: purchased Eurofins DiscoverX KINOMEscan
Method in brief: as §2

PIK3CA (E542K) = molecular target: T16, PIK3CA (E542K) (Homo sapiens, UniProt P42336, E542K)
T16 construct: purchased Eurofins DiscoverX KINOMEscan
Method in brief: as §2

MET = molecular target: T17, MET (Homo sapiens, UniProt P08581)
T17 construct: purchased Eurofins DiscoverX KINOMEscan
Method in brief: as §1

SRMS = molecular target: T18, SRMS (Homo sapiens, UniProt Q9H3Y6)
T18 construct: purchased Eurofins DiscoverX KINOMEscan
Method in brief: as §1

BMPR2 = molecular target: T19, BMPR2 (Homo sapiens, UniProt Q13873)
T19 construct: purchased Eurofins DiscoverX KINOMEscan
Method in brief: as §1

PRKCI = molecular target: T20, PRKCI (Homo sapiens, UniProt P41743)
T20 construct: purchased Eurofins DiscoverX KINOMEscan
T20 sequence (P41743 whole entry): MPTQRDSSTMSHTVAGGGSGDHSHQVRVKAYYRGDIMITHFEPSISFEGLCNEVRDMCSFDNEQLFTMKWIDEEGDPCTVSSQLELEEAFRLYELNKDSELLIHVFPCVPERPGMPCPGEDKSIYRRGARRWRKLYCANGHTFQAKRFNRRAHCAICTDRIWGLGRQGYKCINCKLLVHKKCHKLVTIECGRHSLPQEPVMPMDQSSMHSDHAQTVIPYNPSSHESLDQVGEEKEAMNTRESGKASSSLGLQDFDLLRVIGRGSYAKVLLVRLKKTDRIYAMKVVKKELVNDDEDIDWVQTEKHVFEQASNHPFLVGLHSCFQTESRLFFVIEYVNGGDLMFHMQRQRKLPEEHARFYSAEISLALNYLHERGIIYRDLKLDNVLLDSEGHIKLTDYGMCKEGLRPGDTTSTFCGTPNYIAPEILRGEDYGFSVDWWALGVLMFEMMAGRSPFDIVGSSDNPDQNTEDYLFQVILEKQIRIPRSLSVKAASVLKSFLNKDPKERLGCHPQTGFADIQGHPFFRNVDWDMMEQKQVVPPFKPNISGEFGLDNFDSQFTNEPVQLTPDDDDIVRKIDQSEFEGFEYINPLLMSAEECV
Method in brief: as §1

NDR1 = molecular target: T21, NDR1 (Homo sapiens, UniProt Q15208)
T21 construct: purchased Eurofins DiscoverX KINOMEscan
Method in brief: as §1

GRK3 = molecular target: T22, GRK3 (Homo sapiens, UniProt P35626)
T22 construct: purchased Eurofins DiscoverX KINOMEscan
Method in brief: as §1

ERK2 = molecular target: T23, ERK2 (Homo sapiens, UniProt P28482)
T23 construct: purchased Eurofins DiscoverX KINOMEscan
Method in brief: as §1

PRP4 = molecular target: T24, PRP4 (Homo sapiens, UniProt Q13523)
T24 construct: purchased Eurofins DiscoverX KINOMEscan
T24 sequence (Q13523 whole entry): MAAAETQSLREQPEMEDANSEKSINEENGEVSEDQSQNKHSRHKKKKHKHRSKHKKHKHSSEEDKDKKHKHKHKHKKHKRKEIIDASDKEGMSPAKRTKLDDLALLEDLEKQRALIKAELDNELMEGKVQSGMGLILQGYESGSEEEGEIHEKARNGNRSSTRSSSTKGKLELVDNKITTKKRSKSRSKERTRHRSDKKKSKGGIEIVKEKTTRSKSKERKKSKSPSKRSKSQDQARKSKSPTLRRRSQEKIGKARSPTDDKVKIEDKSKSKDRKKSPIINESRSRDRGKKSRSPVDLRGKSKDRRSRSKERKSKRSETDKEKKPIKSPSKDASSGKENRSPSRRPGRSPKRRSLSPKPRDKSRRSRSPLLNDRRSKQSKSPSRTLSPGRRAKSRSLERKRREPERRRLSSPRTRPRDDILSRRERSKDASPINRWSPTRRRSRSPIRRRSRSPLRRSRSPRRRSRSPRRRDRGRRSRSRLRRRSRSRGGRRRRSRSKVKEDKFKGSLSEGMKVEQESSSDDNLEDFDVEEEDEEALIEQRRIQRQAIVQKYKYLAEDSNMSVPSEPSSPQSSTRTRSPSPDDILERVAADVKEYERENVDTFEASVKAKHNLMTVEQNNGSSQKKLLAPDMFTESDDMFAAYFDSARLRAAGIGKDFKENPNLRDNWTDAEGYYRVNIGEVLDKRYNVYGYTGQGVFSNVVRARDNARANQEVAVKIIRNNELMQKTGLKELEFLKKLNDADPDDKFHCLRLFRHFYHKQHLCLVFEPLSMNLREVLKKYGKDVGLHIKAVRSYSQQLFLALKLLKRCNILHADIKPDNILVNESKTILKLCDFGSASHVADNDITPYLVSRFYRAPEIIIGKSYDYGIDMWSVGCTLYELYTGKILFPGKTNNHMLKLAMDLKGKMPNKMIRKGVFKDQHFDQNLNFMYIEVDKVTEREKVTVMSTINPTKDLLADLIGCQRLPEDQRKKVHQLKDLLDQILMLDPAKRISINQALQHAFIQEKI
Method in brief: as §2

KIT = molecular target: T25, KIT (Homo sapiens, UniProt P10721)
T25 construct: purchased Eurofins DiscoverX KINOMEscan
Method in brief: as §1

CSK = molecular target: T26, CSK (Homo sapiens, UniProt P41240)
T26 construct: purchased Eurofins DiscoverX KINOMEscan
Method in brief: as §1

LRRK2 (G2019S) = molecular target: T27, LRRK2 (G2019S) (Homo sapiens, UniProt Q5S007, G2019S)
T27 construct: purchased Eurofins DiscoverX KINOMEscan
Method in brief: as §1

CAMK4 = molecular target: T28, CAMK4 (Homo sapiens, UniProt Q16566)
T28 construct: purchased Eurofins DiscoverX KINOMEscan
Method in brief: as §1

MINK = molecular target: T29, MINK (Homo sapiens, UniProt Q8N4C8)
T29 construct: purchased Eurofins DiscoverX KINOMEscan
Method in brief: as §2

TLK1 = molecular target: T30, TLK1 (Homo sapiens, UniProt Q9UKI8)
T30 construct: purchased Eurofins DiscoverX KINOMEscan
Method in brief: as §1

MYO3B = molecular target: T31, MYO3B (Homo sapiens, UniProt Q8WXR4)
T31 construct: purchased Eurofins DiscoverX KINOMEscan
Method in brief: as §2

LKB1 = molecular target: T32, LKB1 (Homo sapiens, UniProt Q15831)
T32 construct: purchased Eurofins DiscoverX KINOMEscan
Method in brief: as §2

NEK1 = molecular target: T33, NEK1 (Homo sapiens, UniProt Q96PY6)
T33 construct: purchased Eurofins DiscoverX KINOMEscan
Method in brief: as §1

ABL1 (F317L)-P = molecular target: T34, ABL1 (F317L)-P (Homo sapiens, UniProt P00519, F317L)
T34 construct: purchased Eurofins DiscoverX KINOMEscan
T34 sequence (P00519 whole entry F317L): as the sequence (P00519 whole entry F317I) above, with I317L counted along it
Method in brief: as §1

[1] = molecular target: T35, RPS6KA5 (Kin. Dom.2-C-term.) (Homo sapiens, UniProt O75582)
T35 construct: RPS6KA5 (Kin. Dom.2-C-term.); purchased Eurofins DiscoverX KINOMEscan
Method in brief: as §2

YANK1 = molecular target: T36, YANK1 (Homo sapiens, UniProt Q8WU08)
T36 construct: purchased Eurofins DiscoverX KINOMEscan
Method in brief: as §1

GRK4 = molecular target: T37, GRK4 (Homo sapiens, UniProt P32298)
T37 construct: purchased Eurofins DiscoverX KINOMEscan
Method in brief: as §1

KIT (V559D, T670I) = molecular target: T38, KIT (V559D, T670I) (Homo sapiens, UniProt P10721, T670I/V559D)
T38 construct: purchased Eurofins DiscoverX KINOMEscan
Method in brief: as §1

For O=C1Nc2c(cc([N+](=O)[O-])c3c2CCCC3)C1=NO [Compound 5d, 3-(Hydroxyimino)-5-nitro-1,3,6,7,8,9-hexahydro-2H-benzo[g]indol-2-one], the inhibition at 10 µM (NEK5) was 7%, the inhibition at 10 µM (CAMK1G) was 29% and the inhibition at 10 µM (EPHA8) was 0%. It also gave an inhibition at 10 µM (MET (M1250T)) of 51%, an inhibition at 10 µM (TAK1) of 67% and an inhibition at 10 µM (MRCKA) of 17%. For the same compound, the inhibition at 10 µM (GSK3B) was 29%, the inhibition at 10 µM (GRK7) was 43% and the inhibition at 10 µM (ABL1 (F317I)-P; first of two lines printed ABL1 (F317I)-P) was 7%. The inhibition at 10 µM (ABL1 (F317I)-P; second of two lines printed ABL1 (F317I)-P) was 0%, the inhibition at 10 µM (PIK4CB) was 95.9% and the inhibition at 10 µM (ACVR1) was 2%. It also gave an inhibition at 10 µM (MET (Y1235D)) of 25%, an inhibition at 10 µM (WNK4) of 1% and an inhibition at 10 µM (PIK3C2G) of 43%. For the same compound, the inhibition at 10 µM (TRKA) was 0%, the inhibition at 10 µM (PIK3CA (E542K)) was 43% and the inhibition at 10 µM (MET) was 63%. For the same compound, the inhibition at 10 µM (SRMS) was 29%, the inhibition at 10 µM (BMPR2) was 64% and the inhibition at 10 µM (PRKCI) was 49%. For the same compound, the inhibition at 10 µM (NDR1) was 34%, the inhibition at 10 µM (GRK3) was 77% and the inhibition at 10 µM (ERK2) was 8%. For the same compound, the inhibition at 10 µM (PRP4) was 38%, the inhibition at 10 µM (KIT) was 0% and the inhibition at 10 µM (CSK) was 21%. The inhibition at 10 µM (LRRK2 (G2019S)) was 89%, the inhibition at 10 µM (CAMK4) was 7% and the inhibition at 10 µM (MINK) was 70%. For the same compound, the inhibition at 10 µM (TLK1) was 19%, the inhibition at 10 µM (MYO3B) was 30% and the inhibition at 10 µM (LKB1) was 0%. For the same compound, the inhibition at 10 µM (NEK1) was 31%, the inhibition at 10 µM (ABL1 (F317L)-P; first of two lines printed ABL1 (F317L)-P) was 23% and the inhibition at 10 µM (ABL1 (F317L)-P; second of two lines printed ABL1 (F317L)-P) was 20%. For the same compound, the inhibition at 10 µM [1] was 89.4%, the inhibition at 10 µM (YANK1) was 11% and the inhibition at 10 µM (GRK4) was 34%. It also gave an inhibition at 10 µM (KIT (V559D, T670I)) of 55%.
